The values below come from patent US11365425B2, “Resistant protein for use in herbicide, encoding gene and application thereof” (BEIJING DABEINONG BIOTECHNOLOGY CO., LTD., priority 2016, dated 2022).

For series [1], the system named is wild-type maize plants (CK). The note with it: 4480 g ae/ha dicamba (8 × dicamba), V5-V6 stage, 21 days after spraying. The source says:
(§1) The maize plants into which the optimized MTHFR66 nucleotide sequence was introduced, the maize plants into which the natural MTHFR66 nucleotide sequence was introduced and wild-type maize plants (at V5-V6 stage) were respectively tested for the herbicide resistance effect to dicamba.
(§2) The maize plants into which the optimized MTHFR66 nucleotide sequence was introduced, the maize plants into which the natural MTHFR66 nucleotide sequence was introduced and wild-type maize T1 hybrid plants (at V5-V6 stage) were taken and sprayed with a dicamba herbicide (4480 g ae/ha, 8-fold field concentration) and a blank solvent (water) respectively. 21 days after spraying, the support root development situation was collected. A total of three strains (S1, S2 and S3) of Zm-mMTHFR66, a total of two strains (S4 and S5) of Zm-MTHFR66, and a total of 1 strain of wild type (CK) were taken; and 10-15 plants were selected from each strain and tested.

The subject of series [2] is maize plants (Zm-mMTHFR66). The note with it: 4480 g ae/ha dicamba (8 × dicamba), V5-V6 stage, 21 days after spraying.
Description: as §1, §2

Series [3] has as its system maize plants (Zm-MTHFR66). The note with it: 4480 g ae/ha dicamba (8 × dicamba), V5-V6 stage, 21 days after spraying.
Description: as §1, §2

The subject of series [4] is Arabidopsis thaliana T1 plants (At-mMTHFR66). The note with it: 560 g ae/ha dicamba (1 × dicamba) sprayed. The source says: (§3) Arabidopsis thaliana was first transformed with the MTHFR66 gene. T1 transformants were initially selected from the background of untransformed seeds using a glufosinate selection scheme. The plants that were transformed with the recombinant expression vector DBN111101 were Arabidopsis thaliana plants (At mMTHFR66) into which an optimized MTHFR66 nucleotide sequence located in the chloroplast was introduced, and the plants that were transformed with the recombinant expression vector DBN111101N were Arabidopsis thaliana plants (At MTHFR66) into which a natural MTHFR66 nucleotide sequence located in the chloroplast was introduced. […] Arabidopsis thaliana T1 plants (At-mMTHFR66) into which an optimized MTHFR66 nucleotide sequence was introduced, Arabidopsis thaliana T1 plants (At-MTHFR66) into which a natural MTHFR66 nucleotide sequence was introduced and wild-type Arabidopsis thaliana plants (18 days after sowing) were tested for the herbicide tolerance effect to dicamba.
(§4) Arabidopsis thaliana T1 plants into which an optimized MTHFR66 nucleotide sequence was introduced, Arabidopsis thaliana T1 plants into which a natural MTHFR66 nucleotide sequence was introduced and wild-type Arabidopsis thaliana plants were sprayed with dicamba (560 g ae/ha, 1-fold field concentration) and a blank solvent (water) respectively. Plants were counted for the tolerance situations 7 days and 14 days after spraying: those having a consistent growth status with the blank solvent (water) group after 7 days were classified as highly resistant plants, those having curled rosette leaves after 7 days were classified as moderately resistant plants, those still not capable of bolting after 14 days were classified as lowly resistant plants, and those dead after 14 days were classified as non-resistant plants. Since each Arabidopsis thaliana T1 plant was an independent transformation event, a significant difference in individual T1 responses could be expected at a given dose. The results were shown as Table 1 and FIG. 9.

Series [5] concerns wild-type Arabidopsis thaliana plants. The note with it: 560 g ae/ha dicamba (1 × dicamba) sprayed.
Description: as §3, §4

In series [6] the test system is Arabidopsis thaliana T1 plants (At-MTHFR66). The note with it: 560 g ae/ha dicamba (1 × dicamba) sprayed.
Description: as §3, §4

Series [7] can be described thus: Determination of enzymatic activity of MTHFR66 protein (dicamba to DCSA, HPLC). The series is classed as biochemical. On the procedure:
Enzymatic reaction system (300 μL): containing 1 mM substrate (dicamba), 0.2 mg of MTHFR66, 1 mM tetrahydrofolate (THF) and a buffer system of Tris-HCl at a concentration of 100 mM (pH 8.0), which were reacted in a water bath at a temperature of 30° C. for 1 hour, then kept in boiling water for 1 min, after which the reaction was terminated. The reaction solution was lyophilized, and then dissolved by adding 300 μl of methanol. The amount of the generated intermediate metabolite of dicamba, 3,6-dichlorosalicylic acid (DCSA), was detected using high performance liquid chromatography (HPLC). An enzymatic activity unit is defined as: the amount of enzyme required for degradation of dicamba to generate 1 nmol of product DCSA at pH 8.0, at a temperature of 30° C. within 1 min, and is expressed as U.

Series [8] is described as follows: Dicamba demethylation function of MTHFR66 protein in the presence of trace tetrahydrofolate. The settings on record: 1 mM dicamba, 30° C., 1 hour. The series is classed as biochemical. How it is done:
[…] The reaction solution was lyophilized, and then dissolved by adding 300 μl of methanol. The amount of the generated intermediate metabolite of dicamba, DCSA, was detected using high performance liquid chromatography (HPLC).

Series [9] in a line: Hydrolase functional determination and product identification of MTHFR66 protein. It is filed as biochemical. The note with it: absence of the electron acceptor NAD+. How it is done: Enzymatic reaction system (300 μL): containing 0.2 mg of MTHFR66, 1 mM 5-methyl-tetrahydrofolate (5-CH3—H4F) and a buffer system of Tris-HCl at a concentration of 100 mM (pH 8.0), which were reacted in a water bath at a temperature of 30° C. for 1 hour, then kept in boiling water for 1 min, after which the reaction was terminated. The reaction solution was lyophilized, dissolved by adding 300 μl of 0.1 mol/L KH2PO4 (pH 6.8, 1% ascorbic acid and 0.1% β-mercaptoethanol), filtered using a filter membrane (with a pore size of 0.22 μm), and detected using high performance liquid chromatography. Liquid chromatography conditions were: mobile phase: 0.05 mol/l KH2PO4 (pH 3.0):acetonitrile (90:10, V/V), Zorbax C218 ODS Spherex reversed phase column (5 μm, 4.6 mm×250 mm, Agilent, USA), column temperature of 23° C., UV-detector, with a detection wavelength of 298 nm, a sample injection volume of 20 μl, and a flow rate of 1.0 mL/min. Quantification was performed by peak area according to the external standard method.
Metabolites were identified through HPLC-MS (high performance liquid chromatography-mass spectrum) under the conditions as follows: mobile phase: 0.05 mol/l KH2PO4 (pH 3.0):acetonitrile (90:10, V/V), Zorbax XDB-C18, 5 cm×0.46 cm, 1.8 mm reversed phase column (5 μm, 4.6 mm×250 mm, Agilent, USA), and a flow rate of 0.25 mL/min. […]

Setting [10] is: curled rosette leaves after 7 days.
[11] abbreviates: growth consistent with water group after 7 days.
[12] abbreviates: not capable of bolting after 14 days.

Read-outs that look alike come from different tables or passages of the source.

As to `COc1c(Cl)ccc(Cl)c1C(=O)O` [dicamba, 3,6-dichloro-o-anisic acid], the “Proportion of normally developed support root” value in series [1] amounted to 0%; in series [2] (strain S1 (Zm-mMTHFR66)), 92.31%; in series [2] (strain S2 (Zm-mMTHFR66)) it was 90.91%; in series [2] (strain S3 (Zm-mMTHFR66)), 83.33%; in series [3] (strain S4 (Zm-MTHFR66)), 16.67%; in [3] (strain S5 (Zm-MTHFR66)), 30.77%. Moreover, the “Support root abnormally developed (number of plants)” value is 16 in series [1]; 1 in series [2] (strain S1 (Zm-mMTHFR66)); 1 in [2] (strain S2 (Zm-mMTHFR66)); 2 in series [2] (strain S3 (Zm-mMTHFR66)); 10 in [3] (strain S4 (Zm-MTHFR66)); 9 in series [3] (strain S5 (Zm-MTHFR66)). Also, the “Support root normally developed (number of plants)” value in series [1] came out at 0; in series [2] (strain S1 (Zm-mMTHFR66)), 12; in series [2] (strain S2 (Zm-mMTHFR66)), 10; in [2] (strain S3 (Zm-mMTHFR66)) it was 10; in series [3] (strain S4 (Zm-MTHFR66)) it was 2; in [3] (strain S5 (Zm-MTHFR66)) it was 4. The “Moderately resistant (number of plants)” value was 18 in series [4] (setting [10]), 0 in series [5] (setting [10]) and 3 in [6] (setting [10]). For the same molecule, the “Non-resistant (number of plants)” value in [4] (dead after 14 days) is reported as 5; in series [5] (dead after 14 days) it was 22; in series [6] (dead after 14 days), 19. The “Highly resistant (number of plants)” value in [4] (setting [11]), in [5] (setting [11]) and in series [6] (setting [11]) was 0 throughout. The entries for the “Lowly resistant (number of plants)” value in series [4] (setting [12]), in [5] (setting [12]) and in series [6] (setting [12]) were 0, 0 and 2, respectively.

B1: MTHFR66 protein: herbicide resistant protein, methyltetrahydrofolate reductase, amino acid sequence SEQ ID NO: 2 (289 amino acids) (protein, listed as Sphingomonas paucimobilis)
chain: MGSPVMAIDCDSVPDNLVHCFSIEMTGKDIDALQAAAPLLPPGTSVAVTFLPGENYETRIAACKAVRDLGFEPMPHFSARRIQDEAEFHDFLHAVVAEAKVRRCFVIAGDAAEPEGPYADSMQLIASGAFEAAGIDLIGVAGHPEGHPNMTAGEATAVLRAKTDEIERRGMAALIVTQFTFDAARTLDWLAEVRQAGIDVPVLLGVPGPAGIKTLLRFAARCGVGASASVLSKYGISIGHLLGSAGPDRFVDALRAGIGEQHGHVRLHFYPFGGLDKTARWIADYARKH
As for B1, the “DCSA generated within 1 hour” value in [7] (1 mM dicamba, 0.2 mg MTHFR66, 1 mM THF, Tris-HCl pH 8.0, 30° C., 1 hour) was found to be 0.15 mM. This molecule returned a specific enzymatic activity in series [7] (U = enzyme generating 1 nmol DCSA from dicamba at pH 8.0, 30° C. within 1 min) of 3.75 U/mg. Moreover, the “demethylation of dicamba to DCSA” value in series [8] (in the presence of 0.01 mM tetrahydrofolate) is reported as “can demethylate dicamba to generate DCSA”; in series [8] (in the presence of 0.5 mM of tetrahydrofolate), “can fully demethylate 1 mM dicamba to generate DCSA”. Further, the “product of 5-methyl-tetrahydrofolate metabolism (HPLC-MS)” value in series [9] is listed as “can hydrolyze 5-methyl-tetrahydrofolate to tetrahydrofolate”. Moreover, in series [9] (1 mM 5-methyl-tetrahydrofolate, 30° C., 1 hour), the “transformation of 5-methyl-tetrahydrofolate (HPLC)” value was “can transform 5-methyl-tetrahydrofolate to other substances”.
